In paper PMC12040169 (PLOS Biology, 2025):

Assay: in vitro
Conditions: human, hela cells, % viability

Structure (SMILES)	viability at 28.5 h, 10 µM [%]
CCOc1cc(/C=C2\N=C(c3ccc(OC)cc3)OC2=O)cc(Br)c1OCC(=O)OC [CBK102552]	96.3
O=C(Nc1nc(-c2cccc([N+](=O)[O-])c2)cs1)c1ccc(S(=O)(=O)N2CCCC2)cc1 [CBK102813]	86.5
O=C1S/C(=C\c2ccc(O)c([N+](=O)[O-])c2)C(=O)N1Cc1ccc(F)cc1 [CBK102928]	94.9
O=C1S/C(=C\c2ccc(O)c([N+](=O)[O-])c2)C(=O)N1Cc1ccc(Cl)cc1 [CBK102929]	87.2
COc1ccc([N+](=O)[O-])cc1NC(=O)c1nc(C)c(C)nc1C(=O)O [CBK103387]	82.6
c1cc(-c2ccc(OC3CCNCC3)cc2)c2cccnc2c1 [CBK103528T]	92.7
CCOC(=O)Cn1[nH]c(COC(C)(C)C)c(Cc2c(Cl)cccc2Cl)c1=O [CBK103551]	114
Cc1ccccc1NS(=O)(=O)c1cc(CN2C[C@@H](C)NC[C@@H]2C)c2occc2c1 [CBK103579T]	102
CCOC(=O)Cn1[nH]c(CO)c(Cc2c(Cl)cccc2Cl)c1=O [CBK103580]	92.2
CC(C)Nc1nccnc1SCc1ccc(Cl)c(Cl)c1 [CBK103657]	89.8
CC(C)Nc1cc(SCc2ccc(Cl)c(Cl)c2)ncn1 [CBK103665]	85.1
CC(C)Nc1nc2ccccc2nc1SCCc1ccncc1 [CBK103670]	87.8
CC(C)CSc1nccnc1N1CCCC1 [CBK103683]	97.7
c1ccc(OCCSc2nc3ccccc3nc2N2CCCC2)cc1 [CBK103694]	102
c1ccc2nc(N3CCCC3)c(SCCc3cnccn3)nc2c1 [CBK103695]	106
CC(=O)NCCSc1nc2ccccc2nc1N1CCCC1 [CBK103696]	99
Clc1cc2nc(SCCc3cnccn3)c(N3CCCC3)nc2cc1Cl [CBK103700]	93.1
CC(=O)NCCSc1nc2cc(Cl)c(Cl)cc2nc1N1CCCC1 [CBK103701]	96.3
FC(F)(F)c1ccc(SCc2ccc(Cl)c(Cl)c2)nc1 [CBK103713]	95.3
FC(F)(F)c1cccc(SCCc2ccccn2)n1 [CBK103719]	97.3
FC(F)(F)c1ccnc(SCc2ccc(Cl)c(Cl)c2)n1 [CBK103723]	85.6
FC(F)(F)c1nc2ccccc2nc1SCc1cccs1 [CBK103728]	105

Structure (SMILES)	viability at 28.5 h, 10 µM [%]
FC(F)(F)c1nc2ccccc2nc1SCCc1ccccn1 [CBK103731]	109
FC(F)(F)c1nc2ccccc2nc1SCc1ccccc1 [CBK103732]	87
COc1ccc2c(c1)C1(Nc3ccccc3C(=O)N1c1ccccc1)C(=O)N2 (stereo not drawn) [CBK103747]	94.1
Cc1cccc(C)c1N1C(=O)c2ccccc2NC12C(=O)Nc1ccc([N+](=O)[O-])cc12 (stereo not drawn) [CBK103749]	80.6
CC1SC2(C(=O)Nc3ccccc32)N(c2ccc(Oc3ccccc3)cc2)C1=O (stereo not drawn) [CBK103750]	92.5
Cc1ccc(N2C(=O)c3ccccc3NC23C(=O)N(C)c2ccc(Br)cc23)cc1 (stereo not drawn) [CBK103752]	85.2
CC(C)C(=O)NC(C)c1nc(-c2ccncc2)n[nH]1 (stereo not drawn) [CBK104021]	113
O=C(Nc1cccnc1)c1ncoc1-c1ccc(F)cc1 [CBK104357]	106
CCCc1[nH]n(CC(=O)OCC)c(=O)c1Cc1c(Cl)cccc1Cl [CBK104764]	94.4
Brc1ccc2c(c1)COC1(CN3CCC1CC3)O2 (stereo not drawn) [CBK105268]	107
CC(=O)NCCSc1nccnc1NC(C)C [CBK105289]	92.8
CC(=O)NCCSc1cncc(NC(C)C)n1 [CBK105291]	84.9
CC(C)Nc1cncc(SCCN(C)C)n1 [CBK105292]	90.6
CC(=O)NCCSc1ncccc1C(F)(F)F [CBK105296]	101
CC(=O)NCCSc1nccc(C(F)(F)F)n1 [CBK105301]	102
FC(F)(F)c1ccnc(SCCc2ccncc2)n1 [CBK105302]	95.3
CC(=O)NCCSc1nc2ccccc2nc1C(F)(F)F [CBK105303]	89.6
Cc1[nH]nc(O)c1Cc1ccccc1F [CBK105306]	97.1
COc1ccc(-c2ccc3c(c2)COC2(CCCNC2)O3)c(OC)c1 (stereo not drawn) [CBK105316]	103
Cc1onc(-c2ccccc2)c1NC(=O)Nc1cc2ccccc2c(Br)n1 [CBK105489]	96.5
O=C(Nc1ccc2c(c1)OCO2)Nc1c(Br)cnc2ncccc12 [CBK105596]	93.4
CC1(OCc2ccccc2)SC(NC2CCCCCC2)=NC1=O (stereo not drawn) [CBK105606]	82.8

Structure (SMILES)	viability at 28.5 h, 10 µM [%]
CC(=O)NCCSc1nccnc1N1CCCC1 [CBK105619]	91.7
CCCCNC(=O)Nc1ncc(-c2ccc(C#N)cc2)nc1-c1ccc(C(=O)N2CCOCC2)cc1 [CBK105766]	91.1
Cc1ccccc1NC(=O)Nc1cccc(F)c1 [CBK105831]	88.3
Cc1ccccc1NC(=O)NCc1ccccc1F [CBK105832]	97.4
COc1ccc(Cn2nc(-c3nc(C)no3)c3ccccc32)cc1 [CBK105834]	90.7
CCNC(=O)Nc1nn(Cc2ccc(OC)cc2)c2ccccc12 [CBK105837]	94.6
COCCNc1nc(-c2ccccc2)ccc1C(=O)Nc1cccc(OC)c1 [CBK105886]	98.1
COCCNc1nc(-c2cc(C(C)C)ccc2OC)ccc1C(=O)Nc1cccc(OC)c1 [CBK105904]	96.9
COCCNc1nc(-c2ccccc2)ccc1C(=O)N(C)CCN(C)C [CBK105913]	99.3
COCCNc1nc(-c2ccc(C(C)=O)s2)ccc1C(=O)N(C)CCN(C)C [CBK105914]	116
COCCNc1nc(-c2cccc(N(C)C)c2)ccc1C(=O)NCCc1ccccn1 [CBK105938]	90.7
COCCNc1nc(-c2ccc(N3CCOCC3)cc2)ccc1C(=O)N1CCN(C)CC1 [CBK105943]	111
COCCNc1nc(-c2ccsc2)ccc1C(=O)N1CCN(C)CC1 [CBK105948]	112
COCCNc1nc(-c2ccccc2OC)ccc1C(=O)N1CCN(C)CC1 [CBK105950]	88.7
COCCNc1nc(-c2ccccc2OC)ccc1C(=O)NCCNC(C)=O [CBK105974]	100
CNC(=O)c1ccc(-c2cc(OC)c(OC)c(OC)c2)nc1NCCOC [CBK105997]	94.1
COc1ccc(-c2ccc(C(=O)N(C)C)c(N3CCN(C(=O)c4ccco4)CC3)n2)cc1 [CBK106020]	86.3
COCCNC(=O)c1ccc(-c2ccccc2)nc1N(C)C [CBK106049]	99.8
COCCNC(=O)c1ccc(-c2ccc3c(c2)OCO3)nc1N(C)C [CBK106050]	101
COCCNC(=O)c1ccc(-c2ccccc2OC)nc1N(C)C [CBK106052]	92
COCCNC(=O)c1ccc(-c2cc(C(C)C)ccc2OC)nc1N(C)C [CBK106061]	103

Same assay, conditions: human, hela cells, % viability, bulk resorufin, single well

Structure (SMILES)	viability at 28.5 h, 10 µM [%]
CC(C)(C)OC(=O)N1CCC2(CC1)OCc1cc(-c3cccc(OCC(=O)N4CCOCC4)c3)ccc1O2 [CBK105254]	96.8
